From the CheMixHub ionic liquid set

Assay: xn = mol fraction of the nth substance listed
Details: 101 kPa

CCCCCCCCCCCCCCCC[n+]1ccccc1.O=C([O-])C(O)c1ccccc1 + CC(C)[C@H](N)C(=O)O + O
electrical conductivity [S/m]
Details | 293.15 K | 298.15 K | 303.15 K | 308.15 K | 313.15 K
x1 = 9.1e-07, x2 = 0.0009002 | 0.00089 | 0.00101 | 0.0011 | 0.0013 | 0.0014
x1 = 9.1e-07, x2 = 0.001799 | 0.00133 | 0.00151 | 0.0017 | 0.0019 | 0.0021
x1 = 1.08e-06, x2 = 0 | 0.00061 | 0.00068 | 0.00076 | 0.00083 | 0.0009
x1 = 1.98e-06, x2 = 0 | 0.001 | 0.0012 | 0.0013 | 0.0014 | 0.0016
x1 = 2e-06, x2 = 0.001799 | 0.00178 | 0.00203 | 0.0023 | 0.0025 | 0.0028
x1 = 2.17e-06, x2 = 0.0009002 | 0.0013 | 0.0015 | 0.0017 | 0.0019 | 0.0021
x1 = 2.88e-06, x2 = 0 | 0.00147 | 0.0016 | 0.0018 | 0.002 | 0.0022
x1 = 3.09e-06, x2 = 0.001799 | 0.00218 | 0.0025 | 0.0028 | 0.0031 | 0.0034
x1 = 3.26e-06, x2 = 0.0009002 | 0.00176 | 0.002 | 0.0022 | 0.0025 | 0.0028
x1 = 3.96e-06, x2 = 0 | 0.0019 | 0.0022 | 0.0024 | 0.0026 | 0.0029
x1 = 4e-06, x2 = 0.001799 | 0.00257 | 0.0029 | 0.0032 | 0.0036 | 0.004
x1 = 4.53e-06, x2 = 0.0009002 | 0.00226 | 0.00256 | 0.0029 | 0.0032 | 0.0035
x1 = 4.69e-06, x2 = 0 | 0.0023 | 0.0026 | 0.0029 | 0.0031 | 0.0035
x1 = 5.1e-06, x2 = 0.001799 | 0.00299 | 0.0034 | 0.0038 | 0.0042 | 0.0046
x1 = 5.95e-06, x2 = 0 | 0.00281 | 0.0032 | 0.0035 | 0.0038 | 0.0042
x1 = 5.98e-06, x2 = 0.0009002 | 0.00283 | 0.0032 | 0.0036 | 0.004 | 0.0044
x1 = 6.37e-06, x2 = 0.001799 | 0.00351 | 0.004 | 0.0044 | 0.0049 | 0.0055
x1 = 7.21e-06, x2 = 0 | 0.00341 | 0.0038 | 0.0042 | 0.0046 | 0.0051
x1 = 7.42e-06, x2 = 0.0009002 | 0.00334 | 0.00378 | 0.0042 | 0.0047 | 0.0051
x1 = 7.83e-06, x2 = 0.001799 | 0.00405 | 0.00458 | 0.0051 | 0.0057 | 0.0063
x1 = 8.83e-06, x2 = 0 | 0.00406 | 0.0046 | 0.005 | 0.0055 | 0.006
x1 = 8.87e-06, x2 = 0.0009002 | 0.00384 | 0.00435 | 0.0049 | 0.0054 | 0.006
x1 = 9.28e-06, x2 = 0.001799 | 0.00457 | 0.00517 | 0.0058 | 0.0064 | 0.0072
x1 = 1.032e-05, x2 = 0.0009002 | 0.00431 | 0.00487 | 0.0054 | 0.0061 | 0.0067
x1 = 1.045e-05, x2 = 0 | 0.00469 | 0.0053 | 0.0058 | 0.0065 | 0.0071
x1 = 1.074e-05, x2 = 0.001799 | 0.00499 | 0.00564 | 0.0063 | 0.0071 | 0.0079
x1 = 1.177e-05, x2 = 0.0009002 | 0.00466 | 0.00529 | 0.0059 | 0.0066 | 0.0074
x1 = 1.201e-05, x2 = 0.001799 | 0.00536 | 0.00607 | 0.0068 | 0.0076 | 0.0085
x1 = 1.207e-05, x2 = 0 | 0.00516 | 0.0058 | 0.0064 | 0.0071 | 0.0079
x1 = 1.322e-05, x2 = 0.0009002 | 0.00502 | 0.00569 | 0.0064 | 0.0071 | 0.0079
x1 = 1.347e-05, x2 = 0.001799 | 0.00572 | 0.00647 | 0.0073 | 0.0081 | 0.009
x1 = 1.351e-05, x2 = 0 | 0.00562 | 0.00631 | 0.007 | 0.0077 | 0.0085
x1 = 1.431e-05, x2 = 0.0009002 | 0.00533 | 0.00604 | 0.00678 | 0.0076 | 0.0084
x1 = 1.474e-05, x2 = 0.001799 | 0.00607 | 0.00687 | 0.0077 | 0.0086 | 0.0096
x1 = 1.478e-05, x2 = 0 | 0.00603 | 0.0068 | 0.0075 | 0.0083 | 0.0092
x1 = 1.557e-05, x2 = 0.0009002 | 0.00565 | 0.0064 | 0.00717 | 0.008 | 0.0089
x1 = 1.583e-05, x2 = 0.001799 | 0.00637 | 0.0072 | 0.0081 | 0.009 | 0.01
x1 = 1.622e-05, x2 = 0 | 0.00644 | 0.0072 | 0.008 | 0.0089 | 0.0098
x1 = 1.666e-05, x2 = 0.0009002 | 0.006 | 0.00675 | 0.0076 | 0.0084 | 0.0094
x1 = 1.766e-05, x2 = 0 | 0.00687 | 0.0077 | 0.0085 | 0.0094 | 0.0104

CCCC[N+](C)(C)C.O=S(=O)([N-]S(=O)(=O)C(F)(F)F)C(F)(F)F + CC(O)C(C)O
Details | viscosity [mPa·s]
328.15 K, x2 = 0 | 30

CCCC[N+](C)(C)C.O=S(=O)([N-]S(=O)(=O)C(F)(F)F)C(F)(F)F + CC(O)CO
Details | viscosity [mPa·s]
323.15 K, x2 = 0 | 35.6
323.15 K, x2 = 0.8843 | 11.79
328.15 K, x2 = 0.1909 | 19.2
333.15 K, x2 = 0.3054 | 14.35
338.15 K, x2 = 0 | 22.1
338.15 K, x2 = 0.3054 | 12.44
338.15 K, x2 = 0.5274 | 9.87
338.15 K, x2 = 0.8149 | 7.45
343.15 K, x2 = 0 | 19.2
348.15 K, x2 = 0 | 16.81
348.15 K, x2 = 0.1909 | 11.32
348.15 K, x2 = 0.5274 | 7.89
348.15 K, x2 = 0.8149 | 5.76
353.15 K, x2 = 0.8149 | 5.53

CCCC[N+](C)(C)C.O=S(=O)([N-]S(=O)(=O)C(F)(F)F)C(F)(F)F + CCC(O)CO
Details | viscosity [mPa·s]
323.15 K, x2 = 0.6289 | 15.53
328.15 K, x2 = 0 | 30
338.15 K, x2 = 0.2291 | 14.17
338.15 K, x2 = 0.3543 | 11.92
343.15 K, x2 = 0.2291 | 12.41
348.15 K, x2 = 0.6289 | 7.02
353.15 K, x2 = 0.5116 | 7.12
353.15 K, x2 = 0.8622 | 4.78
